Test results from ChEMBL document CHEMBL2203185, “Development of sub-nanomolar dipeptidic ligands of neuropeptide FF receptors” (Bioorg Med Chem Lett, 2012).

Key:
[1] = target: T1, Neuropeptide FF receptor 1 (Homo sapiens, UniProt Q9GZQ6); assay: Displacement of [3H]FFRF-NH2 from human flag-tagged NPFF1 receptor expressed in CHO cells by scintillation counting; assay type: cell-based
[2] = target: T1, Neuropeptide FF receptor 1; assay: Displacement of [3H]FFRF-NH2 from human flag-tagged NPFF1 receptor expressed in CHO cells at 5 uM by scintillation counting; assay type: cell-based
[3] = target: T1, Neuropeptide FF receptor 1; assay: Displacement of [3H]FFRF-NH2 from human flag-tagged NPFF1 receptor expressed in CHO cells at 500 nM by scintillation counting; assay type: cell-based
[4] = target: T2, Neuropeptide FF receptor 2 (Homo sapiens, UniProt Q9Y5X5); assay: Displacement of [3H]FFRF-NH2 from human flag-tagged NPFF2 receptor expressed in CHO cells at 5 uM by scintillation counting; assay type: cell-based
T2 sequence (Q9Y5X5 whole entry): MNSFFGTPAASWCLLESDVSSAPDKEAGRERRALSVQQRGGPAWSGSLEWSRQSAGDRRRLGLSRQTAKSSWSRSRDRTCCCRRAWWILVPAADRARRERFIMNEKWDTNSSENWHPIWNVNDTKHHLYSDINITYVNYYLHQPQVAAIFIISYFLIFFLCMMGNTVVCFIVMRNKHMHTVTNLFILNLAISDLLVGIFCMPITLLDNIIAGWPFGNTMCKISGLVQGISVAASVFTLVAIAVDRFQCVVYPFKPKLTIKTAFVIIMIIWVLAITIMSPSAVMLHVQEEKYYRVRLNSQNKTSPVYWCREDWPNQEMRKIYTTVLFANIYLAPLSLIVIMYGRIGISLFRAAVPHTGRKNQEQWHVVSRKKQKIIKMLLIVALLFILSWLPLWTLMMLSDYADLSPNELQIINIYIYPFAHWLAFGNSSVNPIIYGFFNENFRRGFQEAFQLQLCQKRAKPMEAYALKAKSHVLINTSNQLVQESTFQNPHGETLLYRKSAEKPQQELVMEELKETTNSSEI

[5] = target: T2, Neuropeptide FF receptor 2; assay: Displacement of [3H]FFRF-NH2 from human flag-tagged NPFF2 receptor expressed in CHO cells by scintillation counting; assay type: cell-based
[6] = target: T2, Neuropeptide FF receptor 2; assay: Displacement of [3H]FFRF-NH2 from human flag-tagged NPFF2 receptor expressed in CHO cells at 500 nM by scintillation counting; assay type: cell-based
[7] = target: T2, Neuropeptide FF receptor 2; assay: Ratio of RF2 Ki to compound Ki for human flag-tagged NPFF2 receptor

T1 sequence (Q9GZQ6 whole entry): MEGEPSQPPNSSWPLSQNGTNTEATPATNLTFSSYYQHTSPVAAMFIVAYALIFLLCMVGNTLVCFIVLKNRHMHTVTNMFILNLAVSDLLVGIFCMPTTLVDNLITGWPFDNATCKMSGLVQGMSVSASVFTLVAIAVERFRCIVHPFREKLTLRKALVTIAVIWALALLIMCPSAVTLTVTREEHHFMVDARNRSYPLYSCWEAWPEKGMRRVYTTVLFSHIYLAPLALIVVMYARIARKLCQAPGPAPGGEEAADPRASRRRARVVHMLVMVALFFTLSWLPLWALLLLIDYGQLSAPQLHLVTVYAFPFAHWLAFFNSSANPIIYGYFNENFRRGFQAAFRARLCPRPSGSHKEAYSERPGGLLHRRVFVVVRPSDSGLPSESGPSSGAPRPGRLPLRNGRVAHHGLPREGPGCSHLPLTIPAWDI

| Structure (SMILES) | Ki [1] [nM] | inhibition [2] [%] | inhibition [3] [%] | inhibition [4] [%] | Ki [5] [nM] | inhibition [6] [%] | Ratio Ki [7] |
| --- | --- | --- | --- | --- | --- | --- | --- |
| N=C(N)NCCC[C@@H](NC(=O)C(c1ccccc1)c1ccccc1)C(=O)N[C@@H](Cc1ccccc1)C(N)=O | 10 | 82 | 75 | 100 | 4 | 84 |  |
| N=C(N)NCCC[C@H](NC(=O)C12CC3CC(CC(C3)C1)C2)C(=O)N[C@H](Cc1ccccc1)C(N)=O | 114 | 79 | 18 | 49 | 424 | 4 |  |
| N=C(N)NCCC[C@@H](NC(=O)/C=C/c1ccccc1)C(=O)N[C@H](Cc1ccccc1)C(N)=O | 84 | 82 | 55 | 14 | 1620 | 0 |  |
| N=C(N)NCCC[C@@H](NC(=O)c1ccccc1)C(=O)N[C@@H](Cc1ccccc1)C(N)=O | 11 | 90 | 80 | 92 | 22 | 55 | 5 |
